Measured values from ChEMBL document CHEMBL3046456, “Anti-angiogenic/proliferative behavior of a 4-aryl-4H-chromene on blood vessels endothelial cells: A possible evidence on dual anti-tumor activity” (Med Chem Res, 2011).
Active and inactive are the calls of the source. The calls are words filed in the database; no cut-off is given here.

Columns and labels:
HUVEC [1] = assay: Cytotoxicity against Homo sapiens (human) HUVEC cells after 48 hr by trypan blue assay; format: cell-based
HUVEC [2] = assay: Cytotoxicity against Homo sapiens (human) HUVEC cells after 48 hr by LDH assay; format: cell-based
HUVEC [3] = assay: Antiproliferative activity against Homo sapiens (human) HUVEC cells at 3.11 to 124 uM after 3 days by cell counting analysis; format: functional, cell-based
HUVEC [4] = assay: Cytotoxicity against Homo sapiens (human) HUVEC cells up to 40 ug/ml after 48 hr by LDH assay; format: cell-based
HUVEC [5] = assay: Cytotoxicity against Homo sapiens (human) HUVEC cells up to 40 ug/ml after 48 hr by trypan blue assay; format: cell-based
HUVEC [6] = assay: Antiproliferative activity against Homo sapiens (human) HUVEC cells at 1 ug/ml after 3 days by cell counting analysis; format: functional, cell-based
HUVEC [7] = assay: Antiproliferative activity against Homo sapiens (human) HUVEC cells after 3 days by cell counting analysis; format: functional, cell-based
[8] = molecular target: Matrix metalloproteinase-9 (Homo sapiens) (UniProt P14780); assay: Inhibition of MMP9 (unknown origin) at 24.88 uM after 16 hr by gelatin zymographic analysis
[9] = molecular target: Matrix metalloproteinase-9 (Homo sapiens) (UniProt P14780); assay: Inhibition of MMP9 (unknown origin) after 16 hr by gelatin zymographic analysis
HUVEC [10] = assay: Antiangiogenic activity against Homo sapiens (human) HUVEC cells assessed as inhibition of capillary tube formation after 3 days by microscopic analysis; format: functional, cell-based
HUVEC [11] = assay: Antiproliferative activity against Homo sapiens (human) HUVEC cells at <10 ug/ml after 3 days by cell counting analysis; format: functional, cell-based
[12] = molecular target: 72 kDa type IV collagenase (Homo sapiens) (UniProt P08253); assay: Inhibition of MMP2 (unknown origin) at 37.32 uM after 16 hr by gelatin zymographic analysis
HUVEC [13] = assay: Antiangiogenic activity against Homo sapiens (human) HUVEC cells assessed as inhibition of capillary tube formation at 1 ug/ml after 3 days by microscopic analysis; format: functional, cell-based

Matrix metalloproteinase-9 (Homo sapiens), sequence (P14780 whole entry): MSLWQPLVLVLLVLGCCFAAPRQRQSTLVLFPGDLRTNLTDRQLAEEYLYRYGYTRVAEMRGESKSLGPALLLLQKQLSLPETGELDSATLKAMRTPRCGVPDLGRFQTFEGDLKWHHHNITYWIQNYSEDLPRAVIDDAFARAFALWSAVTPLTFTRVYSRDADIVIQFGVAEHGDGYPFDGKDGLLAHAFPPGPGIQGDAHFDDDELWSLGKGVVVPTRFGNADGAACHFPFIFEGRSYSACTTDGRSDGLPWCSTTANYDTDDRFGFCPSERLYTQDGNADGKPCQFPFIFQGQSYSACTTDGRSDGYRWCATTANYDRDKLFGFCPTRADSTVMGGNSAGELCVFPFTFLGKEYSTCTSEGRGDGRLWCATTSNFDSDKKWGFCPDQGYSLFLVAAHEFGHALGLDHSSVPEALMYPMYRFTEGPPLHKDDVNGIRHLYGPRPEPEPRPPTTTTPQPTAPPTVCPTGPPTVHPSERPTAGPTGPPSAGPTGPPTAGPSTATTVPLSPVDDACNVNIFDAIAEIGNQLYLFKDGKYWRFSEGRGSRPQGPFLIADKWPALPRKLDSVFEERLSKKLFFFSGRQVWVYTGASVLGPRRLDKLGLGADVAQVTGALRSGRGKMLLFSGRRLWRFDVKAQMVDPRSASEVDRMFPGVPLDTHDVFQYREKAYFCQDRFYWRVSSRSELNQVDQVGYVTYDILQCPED
72 kDa type IV collagenase (Homo sapiens), sequence (P08253 110-660 limits assumed): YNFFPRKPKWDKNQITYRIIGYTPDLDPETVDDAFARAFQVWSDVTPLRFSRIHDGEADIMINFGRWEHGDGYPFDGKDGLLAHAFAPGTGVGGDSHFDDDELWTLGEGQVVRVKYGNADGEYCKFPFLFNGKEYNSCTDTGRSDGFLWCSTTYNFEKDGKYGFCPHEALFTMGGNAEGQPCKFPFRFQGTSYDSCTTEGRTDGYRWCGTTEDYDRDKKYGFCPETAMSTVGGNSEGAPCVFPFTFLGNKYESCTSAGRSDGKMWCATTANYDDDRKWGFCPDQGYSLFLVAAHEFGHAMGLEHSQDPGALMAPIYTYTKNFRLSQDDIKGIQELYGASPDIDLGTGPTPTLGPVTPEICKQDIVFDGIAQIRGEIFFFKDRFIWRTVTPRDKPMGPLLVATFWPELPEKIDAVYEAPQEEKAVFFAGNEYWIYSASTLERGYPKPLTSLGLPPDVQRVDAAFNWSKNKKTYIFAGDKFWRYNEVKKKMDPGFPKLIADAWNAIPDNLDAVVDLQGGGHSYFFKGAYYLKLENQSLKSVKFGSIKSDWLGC

## COc1ccc2c(c1)OC/C(=C\c1ccc(Cl)cc1)C2=O
HUVEC [1]
  Activity: Dose-dependent effect
HUVEC [2]
  Activity: Dose-dependent effect
HUVEC [3]
  Activity: inactive

## COc1ccc2c(c1)OC/C(=C\c1cc(OC)c(O)c(OC)c1)C2=O
HUVEC [1]
  Activity: Dose-dependent effect
HUVEC [2]
  Activity: Dose-dependent effect
HUVEC [3]
  Activity: inactive

## COc1ccc2c(c1)OC/C(=C\c1ccc(C(F)(F)F)cc1)C2=O
HUVEC [1]
  Activity: Dose-dependent effect
HUVEC [2]
  Activity: Dose-dependent effect
HUVEC [3]
  Activity: inactive

## COc1ccc2c(c1)OC/C(=C\c1ccc(O)c(O)c1)C2=O
HUVEC [1]
  Activity: Dose-dependent effect
HUVEC [2]
  Activity: Dose-dependent effect
HUVEC [3]
  Activity: inactive

## COc1ccc2c(c1)OC/C(=C\c1ccc(O)cc1)C2=O
HUVEC [1]
  Activity: Dose-dependent effect
HUVEC [2]
  Activity: Dose-dependent effect
HUVEC [3]
  Activity: inactive

## CCCOc1ccc2c(c1)OC/C(=C\c1ccc(O)c(O)c1)C2=O
HUVEC [1]
  Activity: Dose-dependent effect
HUVEC [2]
  Activity: Dose-dependent effect
HUVEC [3]
  Activity: inactive

## COc1ccc2c(c1)OC/C(=C\c1ccc(OC)c(OC)c1)C2=O
HUVEC [1]
  Activity: Dose-dependent effect
HUVEC [2]
  Activity: Dose-dependent effect
HUVEC [3]
  Activity: inactive

## CN(C)c1ccc2c(c1)OC(N)=C(C#N)C2c1cccc(C(F)(F)F)c1 (centres undefined)
HUVEC [1]
  Activity: Dose-dependent effect
HUVEC [2]
  Activity: Dose-dependent effect
HUVEC [3]
  Activity: inactive

## COc1ccc(/C=C2\COc3cc(OC)ccc3C2=O)cc1
HUVEC [1]
  Activity: Dose-dependent effect
HUVEC [2]
  Activity: Dose-dependent effect
HUVEC [3]
  Activity: inactive

## COc1ccc2c(c1)OC/C(=C\c1ccccc1OC)C2=O
HUVEC [1]
  Activity: Dose-dependent effect
HUVEC [2]
  Activity: Dose-dependent effect
HUVEC [3]
  Activity: inactive

## COc1ccccc1C1C(C#N)=C(N)Oc2cc(N(C)C)ccc21 (centres undefined)
HUVEC [4]
  Activity: Non-toxic
HUVEC [5]
  Activity: Non-toxic
HUVEC [6]
  Activity: Active
HUVEC [7]
  Activity: Dose-dependent effect
[8]
  inhibition: Active
[9]
  inhibition: Dose-dependent effect
HUVEC [10]
  inhibition: Dose-dependent effect
HUVEC [11]
  Activity: Active
[12]
  inhibition: Active
HUVEC [13]
  inhibition: Active

## COc1ccc2c(c1)OC/C(=C\c1ccc(F)cc1)C2=O
HUVEC [1]
  Activity: Dose-dependent effect
HUVEC [2]
  Activity: Dose-dependent effect
HUVEC [3]
  Activity: inactive

## COc1ccc2c(c1)OC/C(=C\c1ccc(Cl)cc1Cl)C2=O
HUVEC [1]
  Activity: Dose-dependent effect
HUVEC [2]
  Activity: Dose-dependent effect
HUVEC [3]
  Activity: inactive

## CN(C)c1ccc2c(c1)OC(N)=C(C#N)C2c1cccc([N+](=O)[O-])c1 (centres undefined)
HUVEC [1]
  Activity: Dose-dependent effect
HUVEC [2]
  Activity: Dose-dependent effect
HUVEC [3]
  Activity: inactive
